pIC50: −log10 of the molar value. Values after ≈ are worked out from the molar mass of the structure shown. Active and inactive are the calls of the source. The rule behind the calls is not given here.
Assays:
HL-60 [1] = assay: Antiproliferative activity against human HL60 cells after 48 hrs by CCK-8 assay; type: functional, cell-based; conditions: HL-60, 48 h
K562 [2] = assay: Antiproliferative activity against human K562 cells after 48 hrs by CCK-8 assay; type: functional, cell-based; conditions: K562, 48 h
HEL [3] = assay: Antiproliferative activity against human HEL cells after 48 hrs by CCK-8 assay; type: functional, cell-based
HEL [4] = assay: Cell cycle arrest in human HEL cells assessed as accumulation at G1 phase at 1 to 5 uM after 48 hrs propidium iodide staining based flow cytometry; type: functional
Candida albicans [5] = assay: microbe, parasite or virus in culture; type: functional; conditions: Candida albicans, 0304103, 48 h
Description: Antifungal activity against FLC resistant Candida albicans 0304103 after 48 hrs by checkerboard microdilution method

Candida albicans [6] = assay: Antifungal activity against FLC resistant Candida albicans 100 after 48 hrs by checkerboard microdilution method; type: functional; conditions: Candida albicans, 100, 48 h
Candida albicans [7] = assay: microbe, parasite or virus in culture; type: functional; conditions: Candida albicans, 0710922, 48 h
Description: Antifungal activity against FLC resistant Candida albicans 0710922 after 48 hrs by checkerboard microdilution method

HL-60 [8] = assay: Antiproliferative activity against human HL60 cells after 48 hrs in presence of JAK2 inhibitor CYT-387 by CCK-8 assay; type: functional, cell-based; conditions: HL-60, 48 h
K562 [9] = assay: Antiproliferative activity against human K562 cells after 48 hrs in presence of JAK2 inhibitor CYT-387 by CCK-8 assay; type: functional, cell-based; conditions: K562, 48 h
HEL [10] = assay: Antiproliferative activity against human HEL cells after 48 hrs in presence of JAK2 inhibitor CYT-387 by CCK-8 assay; type: functional, cell-based
HEL [11] = assay: Antitumor activity against human HEL cells xenografted in BALB/C nude mouse assessed as tumor growth inhibition at 10 mg/kg, ip bid treated for 21 consecutive days relative to control; type: functional; conditions: read-out: TGI
Mus musculus [12] = assay: Protection against spleen enlargement in SCID mouse xenografted with human HEL cells at 10 mg/kg, ip qd; type: functional, organism-based
HEL [13] = assay: Antitumor activity in human HEL cells xenografted in SCID mouse assessed as mouse survival time at 10 mg/kg, ip qd; type: functional
Mus musculus [14] = assay: In vivo antifungal activity against FLC resistant Candida albicans 0304103 infected in ICR mouse assessed as mouse survival at 5 mg/kg, ip qd up to 20 days in co-treated with 1 mg/kg, ip qd fluconazol (reference value: 4.5 day); type: functional
Mus musculus [15] = assay: In vivo antifungal activity against FLC resistant Candida albicans 0304103 infected in ICR mouse assessed as mouse survival at 5 mg/kg, ip qd up to 20 days (reference value: 4.5 day); type: functional, organism-based
Candida albicans [16] = assay: Antifungal activity against FLC resistant Candida albicans 0304103 at 1 ug/ml up to 24 hrs by checkerboard microdilution method; type: functional, organism-based
Mus musculus [17] = assay: In vivo antifungal activity against FLC resistant Candida albicans 0304103 infected in ICR mouse assessed as mouse survival at 1 mg/kg, ip qd up to 20 days (reference value: 4.5 day); type: functional
Mus musculus [18] = assay: Toxicity in BALB/C nude mouse xenografted with human HEL cells at 10 mg/kg, ip bid treated for 21 consecutive days; type: organism-based; conditions: in vivo
Mus musculus [19] = assay: Toxicity in BALB/C nude mouse xenografted with human HEL cells assessed as reduction in body weight at 10 mg/kg, ip bid treated for 21 consecutive days; type: organism-based; conditions: in vivo
HEL [20] = assay: Antitumor activity in human HEL cells xenografted in SCID mouse assessed as mouse survival at 10 mg/kg, ip qd measured after 10 days; type: functional, organism-based
HEL [21] = assay: Antitumor activity against human HEL cells xenografted in BALB/C nude mouse assessed as tumor growth at 10 mg/kg, ip bid treated for 21 consecutive days relative to control; type: functional
HEL [22] = assay: Induction of apoptosis in human HEL cells at 10 uM after 48 hrs by Annexin-V-FITC/propidium iodide staining based flow cytometry relative to control; type: functional
Candida albicans [23] = assay: microbe, parasite or virus in culture; type: functional; conditions: Candida albicans, 0304103, 48 h; remark: listed apart in the source
Description: Antifungal activity against FLC resistant Candida albicans 0304103 assessed as fluconazol MIC50 after 48 hrs by checkerboard microdilution method

Candida albicans [24] = assay: microbe, parasite or virus in culture; type: functional; conditions: Candida albicans, 0304103, 48 h; remark: listed apart in the source
Description: Antifungal activity against FLC resistant Candida albicans 0304103 after 48 hrs in presence of fluconazol by checkerboard microdilution method

Candida albicans [25] = assay: microbe, parasite or virus in culture; type: functional; conditions: Candida albicans, 100, 48 h
Description: Antifungal activity against FLC resistant Candida albicans 100 assessed as fluconazol MIC50 after 48 hrs by checkerboard microdilution method

Candida albicans [26] = assay: Antifungal activity against FLC resistant Candida albicans 100 after 48 hrs in presence of fluconazol by checkerboard microdilution method; type: functional; conditions: Candida albicans, 100, 48 h
Candida albicans [27] = assay: microbe, parasite or virus in culture; type: functional; conditions: Candida albicans, 0710922, 48 h; remark: listed apart in the source
Description: Antifungal activity against FLC resistant Candida albicans 0710922 assessed as fluconazol MIC50 after 48 hrs by checkerboard microdilution method

Candida albicans [28] = assay: microbe, parasite or virus in culture; type: functional; conditions: Candida albicans, 0710922, 48 h; remark: listed apart in the source
Description: Antifungal activity against FLC resistant Candida albicans 0710922 after 48 hrs in presence of fluconazol by checkerboard microdilution method

Candida albicans [29] = assay: Synergistic antifungal activity against FLC resistant Candida albicans 0304103 assessed as FIC index after 48 hrs by checkerboard microdilution method; type: functional
Candida albicans [30] = assay: Synergistic antifungal activity against FLC resistant Candida albicans 100 assessed as FIC index after 48 hrs by checkerboard microdilution method; type: functional
Candida albicans [31] = assay: Synergistic antifungal activity against FLC resistant Candida albicans 0710922 assessed as FIC index after 48 hrs by checkerboard microdilution method; type: functional
HEL [32] = assay: Cell cycle arrest in human HEL cells assessed as accumulation at G1 phase at 1 to 10 uM after 48 hrs propidium iodide staining based flow cytometry; type: functional
[33] = target: Tyrosine-protein kinase JAK2 (Homo sapiens, UniProt O60674); assay: Inhibition of JAK2 (unknown origin) using FAM-labeled peptide as substrate preincubated for 10 mins followed by substrate addition and measured after 25 mins in presence of ATP
Chain of Tyrosine-protein kinase JAK2 (O60674 whole entry): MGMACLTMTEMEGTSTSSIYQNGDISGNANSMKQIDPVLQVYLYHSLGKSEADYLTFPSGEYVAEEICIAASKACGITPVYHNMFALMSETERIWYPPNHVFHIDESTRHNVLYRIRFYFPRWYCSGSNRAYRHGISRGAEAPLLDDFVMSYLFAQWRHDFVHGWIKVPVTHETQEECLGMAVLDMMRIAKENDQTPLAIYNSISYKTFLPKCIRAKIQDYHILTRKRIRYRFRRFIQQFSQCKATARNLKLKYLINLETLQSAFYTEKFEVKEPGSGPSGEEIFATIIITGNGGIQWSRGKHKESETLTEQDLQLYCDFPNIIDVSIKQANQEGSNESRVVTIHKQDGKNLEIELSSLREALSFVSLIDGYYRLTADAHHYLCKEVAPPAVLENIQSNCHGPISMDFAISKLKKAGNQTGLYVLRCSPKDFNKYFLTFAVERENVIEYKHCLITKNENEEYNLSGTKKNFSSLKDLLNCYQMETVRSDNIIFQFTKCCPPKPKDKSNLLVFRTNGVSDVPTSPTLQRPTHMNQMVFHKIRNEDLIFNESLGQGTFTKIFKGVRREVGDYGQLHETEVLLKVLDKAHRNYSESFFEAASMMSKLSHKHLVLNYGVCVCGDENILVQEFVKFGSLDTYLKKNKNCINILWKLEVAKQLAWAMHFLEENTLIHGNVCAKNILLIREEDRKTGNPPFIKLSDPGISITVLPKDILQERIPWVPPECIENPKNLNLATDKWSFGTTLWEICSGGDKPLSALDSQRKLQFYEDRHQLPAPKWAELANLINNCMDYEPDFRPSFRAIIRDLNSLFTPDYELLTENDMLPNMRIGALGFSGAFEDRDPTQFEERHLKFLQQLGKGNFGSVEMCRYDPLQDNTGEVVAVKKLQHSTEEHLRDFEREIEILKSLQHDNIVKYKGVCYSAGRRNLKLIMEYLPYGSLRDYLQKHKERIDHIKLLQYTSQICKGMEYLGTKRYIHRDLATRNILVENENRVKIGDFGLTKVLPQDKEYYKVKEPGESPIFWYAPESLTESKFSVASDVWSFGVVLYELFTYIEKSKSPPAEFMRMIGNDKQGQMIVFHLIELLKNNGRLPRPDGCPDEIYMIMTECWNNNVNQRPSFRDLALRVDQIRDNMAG

Histone deacetylase 1 = Histone deacetylase 1 (Homo sapiens, UniProt Q13547); assay: Inhibition of full length human recombinant HDAC1 expressed in baculovirus expression system using (Ac-Leu-Gly-Lys(Ac)-AMC as substrate preincubated for 5 mins followed by substrate addition and measured after 30 mins by fluorescence assay
Chain of Histone deacetylase 1 (Q13547 whole entry): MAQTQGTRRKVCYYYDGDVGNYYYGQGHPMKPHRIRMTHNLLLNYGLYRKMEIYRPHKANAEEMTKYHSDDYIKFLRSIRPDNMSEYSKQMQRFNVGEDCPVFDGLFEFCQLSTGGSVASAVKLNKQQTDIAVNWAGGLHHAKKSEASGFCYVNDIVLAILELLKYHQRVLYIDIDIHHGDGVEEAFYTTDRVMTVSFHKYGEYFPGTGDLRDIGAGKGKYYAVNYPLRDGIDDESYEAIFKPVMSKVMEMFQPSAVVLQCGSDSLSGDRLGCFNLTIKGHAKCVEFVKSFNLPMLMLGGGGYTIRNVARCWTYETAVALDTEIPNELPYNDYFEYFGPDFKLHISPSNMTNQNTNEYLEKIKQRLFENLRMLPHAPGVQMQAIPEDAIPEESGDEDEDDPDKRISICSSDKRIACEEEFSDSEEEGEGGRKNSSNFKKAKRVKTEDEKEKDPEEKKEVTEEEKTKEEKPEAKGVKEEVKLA

## CN1CCc2c(c3ccccc3n2Cc2ccc(C(=O)NO)cc2)C1 [TUBASTATIN A]
HL-60 [1]
  pIC50: 4.62 to 5.43
K562 [2]
  pIC50: 4.62 to 5.43
HEL [3]
  pIC50: 4.62 to 5.43
HEL [4]
  Activity: Active
Candida albicans [5]
  MIC50: > 64 mg/L
Candida albicans [6]
  MIC50: > 64 mg/L
Candida albicans [7]
  MIC50: > 64 mg/L
HL-60 [8]
  pIC50: 5.07 to 5.60
K562 [9]
  pIC50: 5.07 to 5.60
HEL [10]
  pIC50: 5.07 to 5.60
HEL [11]
  inhibition in vivo at 10 mg/kg: 18.8%
Mus musculus [12]
  Activity: inactive
HEL [13]
  Activity: inactive
Mus musculus [14]
  MST: 4.5 days
Mus musculus [15]
  Activity: inactive

## OC(Cn1cncn1)(Cn1cncn1)c1ccc(F)cc1F [FLUCONAZOLE]
Candida albicans [5]
  MIC50: > 64 mg/L
Candida albicans [6]
  MIC50: > 64 mg/L
Candida albicans [7]
  MIC50: > 64 mg/L
Candida albicans [16]
  Activity: inactive
Mus musculus [17]
  MST: 7.5 days

## O=C(CCCCCCC(=O)Nc1ccccc1)NO [VORINOSTAT]
K562 [2]
  pIC50: 5.11
Mus musculus [18]
  Activity: Non-Toxic
Mus musculus [19]
  Activity: Non-Toxic
Mus musculus [12]
  Activity: inactive
HEL [20]
  Activity: inactive
Mus musculus [14]
  MST: 10 days
HEL [21]
  T/C: 87.9%

## N#CCNC(=O)c1ccc(-c2ccnc(Nc3ccc(N4CCOCC4)cc3)n2)cc1 [MOMELOTINIB]
HL-60 [1]
  pIC50: 5.08
K562 [2]
  pIC50: 5.19
HEL [3]
  pIC50: 5.64
HEL [22]
  Activity: 25.9%
Candida albicans [5]
  MIC50: > 64 mg/L
Candida albicans [23]
  MIC50: > 64 mg/L
Candida albicans [24]
  MIC50: > 64 mg/L
Candida albicans [6]
  MIC50: > 64 mg/L
Candida albicans [25]
  MIC50: > 64 mg/L
Candida albicans [26]
  MIC50: > 64 mg/L
Candida albicans [7]
  MIC50: > 64 mg/L
Candida albicans [27]
  MIC50: 64 mg/L (≈ 154 µM)
Candida albicans [28]
  MIC50: 64 mg/L (≈ 154 µM)
Candida albicans [29]
  fractional inhibitory concentration index (FICI): >2
Candida albicans [30]
  fractional inhibitory concentration index (FICI): >2
Candida albicans [31]
  fractional inhibitory concentration index (FICI): 2
HEL [11]
  inhibition in vivo at 10 mg/kg: 40.2%
Mus musculus [18]
  Activity: Non-Toxic
Mus musculus [19]
  Activity: Non-Toxic
Mus musculus [12]
  Activity: inactive
HEL [20]
  Activity: inactive
Mus musculus [14]
  MST: 5.5 days
HEL [21]
  T/C: 68.3%

## O=C(CCCCCCNC(=O)c1cnc(N(c2ccccc2)c2ccccc2)nc1)NO [RICOLINOSTAT]
HL-60 [1]
  pIC50: 4.62 to 5.43
K562 [2]
  pIC50: 4.62 to 5.43
HEL [3]
  pIC50: 4.62 to 5.43
HEL [32]
  Activity: Active
Candida albicans [5]
  MIC50: > 64 mg/L
Candida albicans [6]
  MIC50: > 64 mg/L
Candida albicans [7]
  MIC50: > 64 mg/L
HL-60 [8]
  pIC50: 5.07 to 5.60
K562 [9]
  pIC50: 5.07 to 5.60
HEL [10]
  pIC50: 5.07 to 5.60
HEL [11]
  inhibition in vivo at 10 mg/kg: 14.1%
Mus musculus [12]
  Activity: inactive
HEL [13]
  Activity: inactive
Mus musculus [14]
  MST: 5 days
Mus musculus [15]
  Activity: inactive

## Nc1cc(F)ccc1NC(=O)/C=C/c1cnn(C/C=C/c2ccccc2)c1
HL-60 [1]
  pIC50: 4.47 to 4.66
K562 [2]
  pIC50: 4.47 to 4.66
HEL [3]
  pIC50: 4.47 to 4.66
Candida albicans [5]
  MIC50: > 64 mg/L
Candida albicans [6]
  MIC50: > 64 mg/L
Candida albicans [7]
  MIC50: > 64 mg/L
HL-60 [8]
  pIC50: 5.38 to 5.79
K562 [9]
  pIC50: 5.38 to 5.79
HEL [10]
  pIC50: 5.38 to 5.79
HEL [11]
  inhibition in vivo at 10 mg/kg: 16.4%
Mus musculus [12]
  Activity: inactive
HEL [13]
  Activity: inactive
Mus musculus [14]
  MST: 5 days
Mus musculus [15]
  Activity: inactive

## N#CCNC(=O)c1ccc(-c2ccnc(Nc3ccc(N4CCC(C(=O)Nc5ccccc5N)CC4)cc3)n2)cc1
[33]
  pIC50: 8.10
Histone deacetylase 1
  pIC50: 5.77
HL-60 [1]
  pIC50: < 4.30
K562 [2]
  pIC50: < 4.30
HEL [3]
  pIC50: 5.18
Candida albicans [5]
  MIC50: > 64 mg/L
Candida albicans [23]
  MIC50: > 64 mg/L
Candida albicans [24]
  MIC50: > 64 mg/L
Candida albicans [6]
  MIC50: > 64 mg/L
Candida albicans [25]
  MIC50: > 64 mg/L
Candida albicans [26]
  MIC50: > 64 mg/L
Candida albicans [7]
  MIC50: > 64 mg/L
Candida albicans [27]
  MIC50: 64 mg/L (≈ 117 µM)
Candida albicans [28]
  MIC50: 64 mg/L (≈ 117 µM)
Candida albicans [29]
  fractional inhibitory concentration index (FICI): >2
Candida albicans [30]
  fractional inhibitory concentration index (FICI): >2
Candida albicans [31]
  fractional inhibitory concentration index (FICI): 2

## Nc1ccccc1NC(=O)c1ccc(-c2ccnc(Nc3ccc(N4CCOCC4)cc3)n2)cc1
[33]
  pIC50: 6.96
Histone deacetylase 1
  pIC50: < 4.30
HL-60 [1]
  pIC50: < 4.30
K562 [2]
  pIC50: < 4.30
HEL [3]
  pIC50: < 4.30
Candida albicans [5]
  MIC50: > 64 mg/L
Candida albicans [23]
  MIC50: > 64 mg/L
Candida albicans [24]
  MIC50: > 64 mg/L
Candida albicans [6]
  MIC50: > 64 mg/L
Candida albicans [25]
  MIC50: 0.5 mg/L (≈ 1.07 µM)
Candida albicans [26]
  MIC50: 64 mg/L
Candida albicans [7]
  MIC50: > 64 mg/L
Candida albicans [27]
  MIC50: > 64 mg/L
Candida albicans [28]
  MIC50: > 64 mg/L
Candida albicans [29]
  fractional inhibitory concentration index (FICI): >2
Candida albicans [30]
  fractional inhibitory concentration index (FICI): 1.01
Candida albicans [31]
  fractional inhibitory concentration index (FICI): >2

— ChEMBL document CHEMBL4145634, “Discovery of Janus Kinase 2 (JAK2) and Histone Deacetylase (HDAC) Dual Inhibitors as a Novel Strategy for the Combinational Treatment of Leukemia and Invasive Fungal Infections” (J Med Chem, 2018)
